US20260193179A9 (priority 2018, published 2026)
Structures can show the parent of a compound that is named as a salt.

Columns and labels:
Lectin Pathway = Lectin Pathway Activation Assay in Human Serum (mannan-coated ELISA, C3c detection); assay type: biochemical; settings: 1% human serum
Protocol: Microtiter ELISA plate was coated with mannan from Saccharomyces cerevisiae (Sigma-Aldrich, M7504) for overnight at 4° C. in coating buffer [15 mM Na2CO3, 35 mM NaHCO3]. Plate was blocked with 1% bovine serum albumin (BSA) (Sigma-Aldrich, A3294) in Tris-buffered Saline (TBS) [10 mM Tris-HCl, 140 mM NaCl] for 2 hours at room temperature. […] 100 μL of this mixture were then added to the plate and plate was incubated at 37° C. for up to an hour with gentle shaking, 200 rpm. After that, plate was washed thrice in wash buffer [TBS containing 5 mM CaCl2) and 0.05% Tween-20] and 100 μL of rabbit anti human C3c (Dako, A0062) diluted 1:5000 in wash buffer were added and incubated at 37° C. for 30 minutes.

mMASP-2 = mMASP-2 (Mus musculus, UniProt Q91WP0); experiment: Enzymatic assay for mMASP-2; assay type: biochemical
mMASP-2, sequence (Q91WP0 20-685): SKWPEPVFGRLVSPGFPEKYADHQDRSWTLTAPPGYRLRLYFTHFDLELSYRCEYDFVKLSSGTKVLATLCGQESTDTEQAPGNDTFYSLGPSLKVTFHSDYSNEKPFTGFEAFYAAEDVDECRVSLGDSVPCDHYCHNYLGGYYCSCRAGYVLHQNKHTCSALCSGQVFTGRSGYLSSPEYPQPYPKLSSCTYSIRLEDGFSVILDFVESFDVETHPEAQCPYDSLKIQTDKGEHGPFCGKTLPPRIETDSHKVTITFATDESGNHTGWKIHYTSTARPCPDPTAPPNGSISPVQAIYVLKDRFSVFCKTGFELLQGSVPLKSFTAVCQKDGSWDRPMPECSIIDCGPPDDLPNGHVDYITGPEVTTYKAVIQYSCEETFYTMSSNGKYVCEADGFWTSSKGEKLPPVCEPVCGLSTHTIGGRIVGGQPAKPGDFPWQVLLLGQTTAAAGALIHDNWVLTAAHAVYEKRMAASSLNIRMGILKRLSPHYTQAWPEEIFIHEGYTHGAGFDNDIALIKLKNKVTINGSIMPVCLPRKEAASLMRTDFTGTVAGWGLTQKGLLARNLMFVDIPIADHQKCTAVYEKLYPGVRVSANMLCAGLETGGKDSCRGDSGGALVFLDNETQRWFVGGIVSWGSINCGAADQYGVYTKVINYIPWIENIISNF

Row | SMILES | IC50 (Lectin Pathway) | Ki (mMASP-2) | IC50 (Lectin Pathway; mannan-coated plate)
1 | N=C(N)c1ccc(CNC(=O)[C@@H]2CCN2C(=O)[C@H](NCC(=O)O)C2CCCCC2)cc1 [compound 999, melagatran, reference compound] | 500 to 50000 nM |  | 
2 | C[C@H](NC(=O)[C@H](N)CCc1ccccc1)C(=O)NCc1ccc(C(=N)N)cc1 [compound 1024] | < 500 nM |  | 
3 | N=C(N)c1ccc(CNC(=O)[C@@H]2CCCN2C(=O)[C@H](N)C2CCCCC2)cc1 [compound 1027] | 50 to 5000 nM |  | 
4 | C[C@H](NC(=O)c1cc(-c2ccccc2)c[nH]1)C(=O)NCc1ccc(C(=N)N)cc1 [compound 1030] |  | < 500 nM | 
5 | N=C(N)c1ccc(CNC(=O)[C@@H]2CCN2C(=O)[C@H]2Cc3ccccc3CN2)cc1 [compound 1034] | 500 to 50000 nM |  | 
6 | C[C@H](NC(=O)[C@H]1C[C@H](c2ccccc2)CN1)C(=O)NCc1ccc(C(=N)N)cc1 [compound 1036] | < 500 nM | < 500 nM | 
7 | N=C(N)c1ccc(CNC(=O)[C@@H]2CCN2C(=O)[C@H](N)CCc2ccccc2)cc1 [compound 1038] | < 500 nM |  | 
8 | Cc1ccc(CC[C@@H](N)C(=O)N[C@@H](C)C(=O)NCc2ccc(C(=N)N)cc2)cc1 [compound 1043] | 50 to 5000 nM |  | 
9 | C[C@H](NC(=O)[C@H](N)CCc1ccc(F)cc1)C(=O)NCc1ccc(C(=N)N)cc1 [compound 1047] | 50 to 5000 nM |  | 
10 | C[C@H](NC(=O)[C@H](N)CCc1cccc(F)c1)C(=O)NCc1ccc(C(=N)N)cc1 [compound 1048] | 50 to 5000 nM |  | 
11 | N=C(N)c1ccc(CNC(=O)[C@@H]2CCN2C(=O)[C@H](N)C2Cc3ccccc3C2)cc1 [compound 1058, (S)-1-((R)-2-Amino-2-(2,3-dihydro-1H-inden-2-yl)acetyl)-N-(4-carbamimidoylbenzyl)azetidine-2-carboxamide] | 50 to 5000 nM |  | 
12 | C[C@H](NC(=O)[C@H](N)C1Cc2ccccc2C1)C(=O)NCc1ccc2nc(N)[nH]c2c1 [compound 1059] | 50 to 5000 nM | < 500 nM | 
13 | C[C@H](NC(=O)[C@H](N)CCc1ccc(Cl)cc1)C(=O)NCc1ccc(C(=N)N)cc1 [compound 1080] | 50 to 5000 nM |  | 
14 | C[C@H](NC(=O)[C@H]1C[C@H](c2ccccc2)CN1)C(=O)NCc1ccc2c(N)nccc2c1 [compound 1090] |  | < 500 nM | 
15 | C[C@H](NC(=O)[C@H](N)Cc1cccc2ccccc12)C(=O)NCc1ccc(C(=N)N)cc1 [compound 1092] | 50 to 5000 nM |  | 
16 | CN(CC(=O)NCc1ccc(C(=N)N)cc1)C(=O)[C@H](NCC(=O)O)C1CCCCC1 [compound 1096] | 500 to 50000 nM |  | 
17 | C[C@H](NC(=O)[C@H]1Cc2c([nH]c3ccccc23)CN1)C(=O)NCc1ccc(C(=N)N)cc1 [compound 1097] |  | < 500 nM | 
18 | C[C@@H](C(=O)NCc1ccc(C(=N)N)cc1)N(C)C(=O)[C@H](NCC(=O)O)C1CCCCC1 [compound 1107] | 500 to 50000 nM |  | 
19 | C[C@H](NC(=O)[C@@H](CCc1ccccc1)NCC(=O)O)C(=O)NCc1ccc(C(=N)N)cc1 [compound 1110] | < 500 nM |  | 
20 | C[C@H](NC(=O)[C@H](N)CCc1cc(Cl)cc(Cl)c1)C(=O)NCc1ccc(C(=N)N)cc1 [compound 1118] |  | < 500 nM | 

Row | SMILES | IC50 (Lectin Pathway) | Ki (mMASP-2) | IC50 (Lectin Pathway; mannan-coated plate)
21 | N=C(N)c1ccc(CNC(=O)[C@@H]2CCN2C(=O)[C@@H](CCc2ccccc2)NCC(=O)O)cc1 [compound 1124] | < 500 nM |  | 
22 | Cc1nc(N)ccc1CNC(=O)[C@H](C)NC(=O)[C@H]1C[C@@H](c2cccc(CN)c2)CN1 [compound 1291, (2R,4S)—N—((S)-1-(((6-Amino-2-methylpyridin-3-yl)methyl)amino)-1-oxopropan-2-yl)-4-(3-(aminomethyl)phenyl)pyrrolidine-2-carboxamide Dihydrochloride] |  | 10000 to 25000 nM | 
23 | C[C@H](NC(=O)[C@H]1C[C@H](c2ccccc2)CN1)C(=O)NCc1ccc(/C(N)=N/O)cc1 [compound 1292] |  | 10000 to 25000 nM | 
24 | C[C@H](NC(=O)[C@H](N)CCc1ccccc1)C(=O)NCc1cc(Cl)ccc1-n1cnnn1 [compound 1325, (R)-2-amino-N—((S)-1-((5-chloro-2-(1H-tetrazol-1-yl)benzyl)amino)-1-oxopropan-2-yl)-4-phenylbutanamide] |  | 10000 to 25000 nM | 
25 | CC(=O)Nc1ccc(CCN[C@H](CCc2ccccc2)C(=O)N[C@@H](C)C(=O)NCc2ccc(N)nc2C)cc1 [compound 1368, (R)-2-((4-Acetamidophenethyl)amino)-N—((S)-1-(((6-amino-2-methylpyridin-3-yl)methyl)amino)-1-oxopropan-2-yl)-4-phenylbutanamide] |  |  | 50 to 500 nM
26 | Cc1nc(N)ccc1CNC(=O)[C@H](C)NC(=O)[C@H]1C[C@H](Cc2ccccc2-c2ccccc2)CN1 [compound 1373, (2R,4S)-4-([1,1′-Biphenyl]-2-ylmethyl)-N—((S)-1-(((6-amino-2-methylpyridin-3-yl)methyl)amino)-1-oxopropan-2-yl)pyrrolidine-2-carboxamide] |  |  | 50 to 500 nM
27 | CCCCCN[C@H](CCc1ccccc1)C(=O)N[C@@H](C)C(=O)NCc1ccc(N)nc1C [compound 1377, (R)—N—((S)-1-(((6-Amino-2-methylpyridin-3-yl)methyl)amino)-1-oxopropan-2-yl)-2-(pentylamino)-4-phenylbutanamide] |  |  | 50 to 500 nM
28 | Cc1nc(N)ccc1CNC(=O)[C@H](C)NC(=O)[C@@H](CCc1ccccc1)NCc1ccc(C(=O)N2CCOCC2)cc1 [compound 1381, (R)—N—((S)-1-(((6-Amino-2-methylpyridin-3-yl)methyl)amino)-1-oxopropan-2-yl)-2-((4-(morpholine-4-carbonyl)benzyl)amino)-4-phenylbutanamide] |  |  | 500 to 5000 nM
29 | C[C@H](NC(=O)[C@H]1C[C@H](c2ccccc2)CN1)C(=O)NCc1cc(Cl)cc(Cl)c1O [compound 1395, (2R,4R)—N—((S)-1-((3,5-dichloro-2-hydroxybenzyl)amino)-1-oxopropan-2-yl)-4-phenylpyrrolidine-2-carboxamide] |  |  | 5000 to 50000 nM
30 | Cc1nc(N)ccc1CNC(=O)[C@H](C)NC(=O)[C@H]1C[C@@H](c2ccccc2)CCN1CC(=O)O [compound 1398, 2-((2R,4S)-2-(((S)-1-(((6-Amino-2-methylpyridin-3-yl)methyl)amino)-1-oxopropan-2-yl)carbamoyl)-4-phenylpiperidin-1-yl)acetic acid] |  |  | 50 to 500 nM
31 | Cc1nc(N)ccc1CNC(=O)[C@H](C)NC(=O)[C@H]1C[C@H](Cc2cc(-c3ccccc3)cs2)CN1 [compound 1399, (2R,4R)—N—((S)-1-(((6-Amino-2-methylpyridin-3-yl)methyl)amino)-1-oxopropan-2-yl)-4-((4-phenylthiophen-2-yl)methyl)pyrrolidine-2-carboxamide] |  |  | 50 to 500 nM
32 | Cc1nc(N)ccc1CNC(=O)[C@H](C)NC(=O)[C@H]1C[C@H](Cc2cccc(-c3ccccc3)c2)CN1 [compound 1406, (2R,4S)-4-([1,1′-Biphenyl]-3-ylmethyl)-N—((S)-1-(((6-amino-2-methylpyridin-3-yl)methyl)amino)-1-oxopropan-2-yl)pyrrolidine-2-carboxamide] |  |  | 50 to 500 nM
33 | COc1cc(C[C@@H]2CN[C@@H](C(=O)N[C@@H](C)C(=O)NCc3ccc(N)nc3C)C2)cc(OC)c1 [compound 1407, (2R,4S)—N—((S)-1-(((6-Amino-2-methylpyridin-3-yl)methyl)amino)-1-oxopropan-2-yl)-4-(3,5-dimethoxybenzyl)pyrrolidine-2-carboxamide] |  |  | 50 to 500 nM
34 | C[C@H](NC(=O)[C@H]1C[C@H](Cc2ccccc2-c2ccc(Cl)s2)CN1)C(=O)NCc1cc(Cl)ccc1-n1cnnn1 [compound 1409, (2R,4S)—N—((S)-1-((5-Chloro-2-(1H-tetrazol-1-yl)benzyl)amino)-1-oxopropan-2-yl)-4-(2-(5-chlorothiophen-2-yl)benzyl)pyrrolidine-2-carboxamide] |  |  | 500 to 5000 nM
35 | Cc1nc(N)ccc1CNC(=O)[C@H](C)NC(=O)[C@H]1C[C@H](Cc2ccccc2-c2ccc(Cl)s2)CN1 [compound 1410, (2R,4S)—N—((S)-1-(((6-Amino-2-methylpyridin-3-yl)methyl)amino)-1-oxopropan-2-yl)-4-(2-(5-chlorothiophen-2-yl)benzyl)pyrrolidine-2-carboxamide] |  |  | 500 to 5000 nM
36 | Cc1nc(N)ccc1CNC(=O)[C@H](C)NC(=O)[C@H]1C[C@@H](c2ccccc2)CCN1CCC(=O)O [compound 1411, 3-((2R,4S)-2-(((S)-1-(((6-Amino-2-methylpyridin-3-yl)methyl)amino)-1-oxopropan-2-yl)carbamoyl)-4-phenylpiperidin-1-yl)propanoic acid] |  |  | 50 to 500 nM
37 | Cc1nc(N)ccc1CNC(=O)[C@H](C)NC(=O)[C@H]1C[C@H](Cc2cccc(C(=O)N3CCC3)c2)CN1 [compound 1420, (2R,4S)—N—((S)-1-(((6-Amino-2-methylpyridin-3-yl)methyl)amino)-1-oxopropan-2-yl)-4-(3-(azetidine-1-carbonyl)benzyl)pyrrolidine-2-carboxamide] |  |  | 50 to 500 nM
38 | C[C@H](NC(=O)[C@H]1C[C@@H](c2ccccc2)CCN1)C(=O)NCc1cc(Cl)ccc1-n1cnnn1 [compound 1426, (2R,4S)—N—((S)-1-((5-Chloro-2-(1H-tetrazol-1-yl)benzyl)amino)-1-oxopropan-2-yl)-4-phenylpiperidine-2-carboxamide] |  |  | < 50 nM
39 | Cc1cccc(CNC(=O)[C@H](C)NC(=O)[C@H]2C[C@H](Cc3ccccc3)CN2)c1-n1ncnn1 [compound 1437, (2R,4S)-4-Benzyl-N—((S)-1-((3-methyl-2-(2H-tetrazol-2-yl)benzyl)amino)-1-oxopropan-2-yl)pyrrolidine-2-carboxamide] |  | 2500 to 10000 nM | 
40 | C[C@H](NC(=O)[C@H]1C[C@H](c2ccccc2)CN1)C(=O)NCc1cnc2c(c1)c(Cl)cn2C [compound 1442, (2R,4R)—N—((S)-1-(((3-Chloro-1-methyl-1H-pyrrolo[2,3-b]pyridin-5-yl)methyl)amino)-1-oxopropan-2-yl)-4-phenylpyrrolidine-2-carboxamide] |  |  | 500 to 5000 nM
